Test results taken from US7956088B2, “Synthetic lactone formulations and methods of use” (priority 2002, dated 2011).
Where “and” joins values, the source holds several entries; their conditions need not be identical. Identical values can stand only once. Like-named read-outs stand apart in the source and are kept apart here.

What was measured:
[1] = tested on: CaSKi (HPV Type-16 positive) human cervical cancer cells; test: In vitro cytotoxicity / anti-proliferative activity; assay type: cell-based
Description: (§5) Four tumor cell lines, including human prostate cancers PC-4 (androgen-insensitive) and LnCaP (androgen-insensitive) and human cervical cancers CaSKi (human papilloma virus-(HPV) Type-16 positive] and C-33 (HPV-negative), were cultured in RPMI-10% bovine serum, glutamine and antibiotics at 5% CO2 an 37 degrees Celsius.
(§6) The lethal dosages for each cell line is listed below:

Pseudomona aeruginosa = test: Microbiological sensitivity assay; assay type: cell-based
Description: Culture Medium for Pseudomona aeruginosa (USP 23 <81>) • Pancreatic digestive Caseine . . . 17.0 g • soy Papaine digestive . . . 3.0 g • Sodium Chloride . . . 5.0 g • Dibasic Potassium Phosphate . . . 2.5 g • Dextrose . . . 2.5 g • Agar . . . 20.0 g • Water to make about . . . 1.0 Lit • pH after sterilized 7.2±0.1

[2] = tested on: LnCaP human prostate cancer cells; test: In vitro cytotoxicity / anti-proliferative activity; assay type: cell-based
Description: as §5, §6

Sarcina lutea = test: Disc zone of inhibition / MIC tests No. 1-3, poured in plate, Mueler Hinton pH 8; assay type: cell-based; conditions: for zone of inhibition at 10 µg/disc: Micrococcus luteus; for zone of inhibition at 10 µg/disc / P (mm), zone of inhibition: pattern disc with 10 μg
[3] = tested on: PC-4 human prostate cancer cells; test: In vitro cytotoxicity / anti-proliferative activity; assay type: cell-based
Description: as §5, §6

Staphylococcus aureus = test: Microbiological sensitivity assay; assay type: cell-based
Description: Culture Medium for Staphylococo aureus (USP 23 <81>) • Peptone . . . 1.0 g • Digestive pancreatic Caseine . . . 4.0 g • Yeast Extract . . . 3.0 g • Beef Extract . . . 1.5 g • Dextrose . . . 1.0 g • Agar . . . 15.0 g • Water to make about . . . 1.0 Lit • pH after sterilized 6.6±0.1

Klebsiela pneumoniae = test: Microbiological sensitivity assay; assay type: cell-based
Description: (§1) Culture Medium for E. coli and k. neumoniae (according to USP 23 <81>) • Peptone . . . 5.0 g • Yeast Extract . . . 1.5 g • Beef Extract . . . 1.5 g • Sodium Chloride . . . 3.5 g • Dextrose . . . 1.0 g • Dibasic Potassium Phosphate . . . 3.68 g • Monobasic Potassium Phosphate . . . 1.32 g • Water To make about . . . 1.0 L • pH after sterilized 7.0±0.05 Antibacterial Activity Assays (Minimum Inhibitory Concentration, MIC)

Escherichia coli = test: Microbiological sensitivity assay; assay type: cell-based
Description: as §1

[4] = tested on: PC-4, LnCaP, CaSKi and C-33 tumor cell lines; conditions: curves of 1000 μg LMSV-6 and 1000 μM tamoxifen; cell line not stated
Description: Four tumor cell lines, including human prostate cancers PC-4 ([…]) and LnCaP ([…]) and human cervical cancers CaSKi (human papilloma virus-(HPV) Type-16 positive] and C-33 (HPV-negative), were cultured in RPMI-10% bovine serum, glutamine and antibiotics at 5% CO2 an 37 degrees Celsius.

[5] = tested on: Salmonella typhimurium TA98; test: Ames test; assay type: cell-based; conditions: 1 or 10 μg/mL
Description: (§2) This study was performed in accordance with the norms of USC 79/831, which establishes the guidelines for toxicological analytical methods.
(§3) The Ames test detects drug-induced ‘reverting mutations’ in previously mutated strains of Salmonella typhimurium, all of which have the rfa mutation that makes their cell membranes permeable to chemical agents. […] The presence of these mutations incapacitates the growth of these cells in a histidine-poor culture medium.
(§4) A drug is said to be mutagenic if it causes a greater than 2-fold increase in the number of colonies growing in histidine-poor medium.

[6] = tested on: Salmonella typhimurium TA100; test: Ames test; assay type: cell-based; conditions: ≦100 μg/mL
Description: as §2, §3, §4

[7] = tested on: C-33 (HPV-negative) human cervical cancer cells; test: In vitro cytotoxicity / anti-proliferative activity; assay type: cell-based
Description: as §5, §6

[8] = Study of adverse reactions in healthy volunteers; assay type: in vivo
Description: Nineteen healthy volunteers participated in the study. The age of the participants was between 21 and 40 years with an average of 30.5±7.2 years. The weight was between 150 and 190 pounds with a median of 163.2±14.3 pounds and the height was 1.8 to 2.1 meters with an average of 1.9±0.1 meters. The subjects were selected at random in agreement with the national and international criteria and norms established for investigations with human beings.
The state of health of the participants was established using several clinical evaluations, laboratory tests, electrocardiographs and thoracic radiographs. The functionality of the liver and the renal systems was verified by chemical-enzymatic studies. Likewise, for each participant we carried out tests of blood chemistry, pathology and urinalysis. For the females, the absence of pregnancy and/or lactation was verified by means of laboratory tests and gynecological evaluation.
Participants were divided into three groups selected at random (n=6): • Group I (placebo) received 2.0 ml of saline solution (ClNa^+, 0.9%), Group II, received 60 mg of LMSV-6 intramuscularly, and Group III (n=7) received 100 mg of LMSV-6 intramuscularly. The participants underwent several tests used to establish the basal values of the objective parameters of the analysis, which included:
Lab Studies: hemogram, blood chemistry, urinalysis and coproanalysis
Cardiovascular Function: arterial tension (TA), cardiac rhythm (RC), cardiac frequency (FC) and radial pulse (PR)
Pulmonary Functions: pulmonary respiration (VP) and respiratory frequency (FR)
Renal Function: urinary volume and urinary frequency (FU)
Sensory System: hearing, vision, smell, taste and sensory reflexes
Skin and/or Teguments: sensitivity, skin texture, temperature and musculo-skeletal tone
Neurovegetative Functions: salivary gland and sweat gland activities, gastrointestinal […] and visceral reflexes
Hypersensitivity Reactions: local sensitivity and systemic sensitivity.

[9] = Rats infected in surgery, then treated; assay type: in vivo
Description: The high activity of these lactones against Escherichia coli, Klebsiela pneumoniae, Pseudomona aeruginosa, Staphylococo aureus, among others, and its low molecular weight, are advantageous.

[10] = anti-proliferative activity after 72 hours

SMILES: CN(Cc1cnc2nc(N)nc(N)c2n1)c1ccc(C(=O)N[C@@H](CCC(=O)O)C(=O)O)cc1 [methotrexate, reference compound]
- Anti-proliferative activity against CaSKi [1]: lacked activity

SMILES: C=C1CCOC1=O [LMSV-6, 4,5-dihydro-3-methylene-2[3H]furanone]
- LD50, cytotoxicity ([1]; after 4 hours): > 1,982 μM
- LD50 [1, 10]: 64.3 µM
- Activity against Pseudomona aeruginosa (Pseudomona aeruginosa): high activity
- LD50 ([2]; LNCaP, anti-proliferative activity after 72 hours): 26.5 µM
- LD50, cytotoxicity ([2]; LnCaP, after 4 hours): > 1,982 μM
- S (mm), zone of inhibition (Sarcina lutea; Test No 2, 16.0 microliters/100 mL and 10 μL applied to sensibility disc): 20 mm and 23 mm and 19 mm
- S (mm), total of the three zones (Sarcina lutea; Test No 2, 16.0 microliters/100 mL, 10 μL applied, unlabelled sum line): 62 mm
- S (mm), zone of inhibition (Sarcina lutea; Test No. 1, 5 pure μL applied to sensibility disc): 40 mm and 44 mm and 43 mm
- S (mm), total of the three zones (Sarcina lutea; Test No. 1, 5 pure μL, unlabelled sum line): 127 mm
- Sample zone of inhibition relative to pattern (Sarcina lutea; Test No. 1, versus ceftriaxone 10 μg disc): three times bigger
- S (mm), zone of inhibition (Sarcina lutea; Test No. 3, 10 microliters/10 mL and 20 μL applied to sensibility disc): 3 mm and 4 mm
- S (mm), total of the three zones (Sarcina lutea; Test No. 3, 10 microliters/10 mL, 20 μL applied, unlabelled sum line): 10 mm
- Zone of Inhibition (Sarcina lutea; applied volume to disc 0.2 μL (MIC)): 3.3 mm
- Zone of Inhibition (Sarcina lutea; applied volume to disc 1.6 M): 20.0 mm
- Zone of Inhibition (Sarcina lutea; applied volume to disc 5 μL): 42.0 mm
- Minimum Inhibitory Concentration (MIC) (Sarcina lutea; volume applied to disc): ~0.2 µL
- LD50, cytotoxicity ([3]; after 4 hours): > 1,982 μM
- LD50 [3, 10]: 59.2 µM
- Activity against Staphylococcus aureus (Staphylococcus aureus): high activity
- Activity against Klebsiela pneumoniae (Klebsiela pneumoniae): high activity
- Activity against Escherichia coli (Escherichia coli): high activity
- LD50 from curves of percent inhibition of proliferation [4]: 528 µM
- Colony count in histidine-poor medium [5]: did not increase normal colony count
- Colony count in histidine-poor medium [6]: did not increase normal colony count
- LD50, cytotoxicity ([7]; after 4 hours): 538 µM
- LD50 [7, 10]: 7.10 µM
- Respiratory frequency (FR) ([8]; during the entire test): 18 to 20 respirations per minute
- Adverse reactions ([8]; human, in vivo): no evidence, sign or symptom of adverse reactions
- Allergic effects (reactivity), local and systemic ([8]; human, in vivo): not any manifestation of allergic reactions
- Cutaneous sensitivity and temperature ([8]; human, in vivo): did not provoke any change
- Electrocardiograph pattern ([8]; human, in vivo): no variation
- Mental state and sensory acuteness (auditory, visual, olfactory, taste) ([8]; human, in vivo): did not provoke any alteration
- Respiratory mechanics and dynamics ([8]; human, in vivo): did not alter
- Tolerance of maximum dosage tested ([8]; human, in vivo): well tolerated
- Treatment of developed infection [9]: successfully treated

SMILES: CC/C(=C(\c1ccccc1)c1ccc(OCCN(C)C)cc1)c1ccccc1 [Tamoxifen]
- LD50 from curves of percent inhibition of proliferation [4]: 345 µM

SMILES: CO/N=C(\C(=O)N[C@@H]1C(=O)N2C(C(=O)O)=C(CSc3nc(=O)c(=O)[nH]n3C)CS[C@H]12)c1csc(N)n1 [Ceftriaxone, reference compound]
- zone of inhibition at 10 µg/disc (Sarcina lutea; Test No 2, read-out: P (mm), zone of inhibition): 18 mm
- zone of inhibition at 10 µg/disc (Sarcina lutea; Test No 2, unlabelled sum line, read-out: P (mm), total of the three zones): 49 mm
- zone of inhibition at 10 µg/disc (Sarcina lutea; Test No. 1, read-out: P (mm), zone of inhibition): 12 mm
- zone of inhibition at 10 µg/disc (Sarcina lutea; Test No. 1, unlabelled sum line, read-out: P (mm), total of the three zones): 43 mm
- zone of inhibition at 10 µg/disc (Sarcina lutea; Test No. 3, read-out: P (mm), zone of inhibition): 18 mm
- zone of inhibition at 10 µg/disc (Sarcina lutea; Test No. 3, unlabelled sum line, read-out: P (mm), total of the three zones): 49 mm
- P (mm), zone of inhibition (Sarcina lutea; Test No 2): 16 mm and 15 mm
- P (mm), zone of inhibition (Sarcina lutea; Test No. 1): 15 mm and 16 mm
- P (mm), zone of inhibition (Sarcina lutea; Test No. 3): 16 mm and 15 mm
